In US20050065062A1, “Method of formulating a pharmaceutical composition” (3M Innovative Properties Company, priority 2003, published 2005):
Like-named read-outs stand apart in the source and are kept apart here.

Legend:
[1] = 0 h
[2] = Franz diffusion cell, membrane diffusion across poly(dimethylsiloxane) membrane; conditions: ranking of excipients
[3] = Franz diffusion cell, membrane diffusion across hairless mouse skin; assay type: in vitro ADME
Protocol: Diffusion of the compounds through hairless mouse skin into phosphate buffer in a Franz cell was carried out and measured as described in Example 1, with Sudan I being used in place of Fat Brown RR.

C#C[C@]1(O)CC[C@H]2[C@@H]3CCC4=CC(=O)CC[C@@H]4[C@H]3CC[C@@]21CC [levonorgestrel]
CUMULATIVE AMOUNT OF COMPOUND DIFFUSED ACROSS SKIN [1]: 0 μg/10 mL
relative order for membrane diffusion rate [2]: alpha-terpineol>isostearic acid>tetraglycol

Nc1ccc(N=Nc2cccc3ccccc23)c(N)c1 [Fat Brown RR]
relative order for membrane diffusion rate ([3]; ranking of excipients): alpha-terpineol>propylene glycol>isostearic acid>tetraglycol
CUMULATIVE AMOUNT OF COMPOUND DIFFUSED ACROSS SKIN ([3]; saturated solution in alpha-terpineol, 0 hours): 0 µg/mL
CUMULATIVE AMOUNT OF COMPOUND DIFFUSED ACROSS SKIN ([3]; saturated solution in alpha-terpineol, 6 hours): 168 µg/mL
CUMULATIVE AMOUNT OF COMPOUND DIFFUSED ACROSS SKIN ([3]; saturated solution in alpha-terpineol, 12 hours): 444 µg/mL
CUMULATIVE AMOUNT OF COMPOUND DIFFUSED ACROSS SKIN ([3]; saturated solution in alpha-terpineol, 18 hours): 812 µg/mL
CUMULATIVE AMOUNT OF COMPOUND DIFFUSED ACROSS SKIN ([3]; saturated solution in alpha-terpineol, 24 hours): 1162 µg/mL
CUMULATIVE AMOUNT OF COMPOUND DIFFUSED ACROSS SKIN ([3]; saturated solution in isostearic acid, 0 hours): 0 µg/mL
CUMULATIVE AMOUNT OF COMPOUND DIFFUSED ACROSS SKIN ([3]; saturated solution in isostearic acid, 6 hours): 41 µg/mL
CUMULATIVE AMOUNT OF COMPOUND DIFFUSED ACROSS SKIN ([3]; saturated solution in isostearic acid, 12 hours): 92 µg/mL
CUMULATIVE AMOUNT OF COMPOUND DIFFUSED ACROSS SKIN ([3]; saturated solution in isostearic acid, 18 hours): 169 µg/mL
CUMULATIVE AMOUNT OF COMPOUND DIFFUSED ACROSS SKIN ([3]; saturated solution in isostearic acid, 24 hours): 262 µg/mL
CUMULATIVE AMOUNT OF COMPOUND DIFFUSED ACROSS SKIN ([3]; saturated solution in propylene glycol, 0 hours): 0 µg/mL
CUMULATIVE AMOUNT OF COMPOUND DIFFUSED ACROSS SKIN ([3]; saturated solution in propylene glycol, 6 hours): 84 µg/mL
CUMULATIVE AMOUNT OF COMPOUND DIFFUSED ACROSS SKIN ([3]; saturated solution in propylene glycol, 12 hours): 221 µg/mL
CUMULATIVE AMOUNT OF COMPOUND DIFFUSED ACROSS SKIN ([3]; saturated solution in propylene glycol, 18 hours): 445 µg/mL
CUMULATIVE AMOUNT OF COMPOUND DIFFUSED ACROSS SKIN ([3]; saturated solution in propylene glycol, 24 hours): 677 µg/mL
CUMULATIVE AMOUNT OF COMPOUND DIFFUSED ACROSS SKIN ([3]; saturated solution in tetraglycol, 0 hours): 0 µg/mL
CUMULATIVE AMOUNT OF COMPOUND DIFFUSED ACROSS SKIN ([3]; saturated solution in tetraglycol, 6 hours): 13 µg/mL
CUMULATIVE AMOUNT OF COMPOUND DIFFUSED ACROSS SKIN ([3]; saturated solution in tetraglycol, 12 hours): 25 µg/mL
CUMULATIVE AMOUNT OF COMPOUND DIFFUSED ACROSS SKIN ([3]; saturated solution in tetraglycol, 18 hours): 39 µg/mL
CUMULATIVE AMOUNT OF COMPOUND DIFFUSED ACROSS SKIN ([3]; saturated solution in tetraglycol, 24 hours): 52 µg/mL
